Like-named read-outs stand apart in the source and are kept apart here.
Experiments:
[1] = test system: persistent cough after stellate ganglion block; conditions: 1 ml of 2% in 2 ml normal saline, nebulized; cited from earlier work
[2] = test system: cough responses in guinea pigs; conditions: cited from earlier work
[3] = test system: patient with persistent refractory tussive syncope; conditions: 1 ml of 1% nebulized every 4 hours for 10 days, with other anti-tussive drugs; cited from earlier work
capsaicin-induced cough = conditions: lignocaine 20 mg, alone or with adrenaline; cited from earlier work
chronic refractory cough = conditions: 3 ml of 1% nebulized twice a day 6-10 weeks, with other drugs; cited from earlier work
cough [4] = conditions: cited from earlier work
[5] = test system: patients suffering from cough
cough [6] = conditions: nebulized before fibreoptic bronchoscopy; cited from earlier work
cough [7] = conditions: cited from earlier work; remark: listed apart in the source
[8] = test system: mild to moderate asthma patients; conditions: for incidence of oropharyngeal numbing, noted at least once: 12 week study

In the case of `CCN(CC)CC(=O)Nc1c(C)cccc1C` [lidocaine, acetamide 2-(diethylamino)-N-(2,6-dimethylphenyl)], the “treatment of persistent cough” value [1] is given as “Treatment was achieved”, the “total number of coughs induced by capsaicin” value ([2]; 10 to 30 mg/ml) is given as “reduced the total number of coughs” and the “onset of the first cough” value ([2]; aerosol 0.1 to 10 mg/ml) is given as “delay onset of the first cough”. For the same molecule, the “time course of cough responses” value ([2]; aerosol 0.1 to 10 mg/ml) was “no significant effect”, the “total number of coughs” value ([2]; aerosol 0.1 to 10 mg/ml) was “reduce the total number of coughs” and the syncopal episodes [3] was “able to resolve syncopal episodes”. The coughing (capsaicin-induced cough) was “significantly reduced coughing”, the “treatment of refractory cough” value (chronic refractory cough) was “effective” and the anesthesia of oropharynx (cough [4]; 10 ml of 4%, about 30 minutes) was “substantial anesthesia of oropharynx”. The “duration of cough suppression” value (cough [4]; after the first treatment, 10 ml of 4%) was “about 9 weeks”, the “duration of cough suppression” value (cough [4]; after the second administration) was 7.5 weeks and the “symptoms of cough patients sensitive to smoke, dust, airway pollution” value ([5]; 10 mg or 40 mg inhaled twice daily) was “substantial improvement of their symptoms”. The “suppression of severe chronic cough” value ([5]; 16 mg lung dose delivered as 40 mg/1 ml saline, less than 2 minutes) was “very efficacious”, the “cough in cystic fibrosis, bronchiectasis or other suppurative pulmonary disease” value ([5]; aerosolized) was “successful in suppressing the cough” and the “tolerability and safety of aerosol” value ([5]; formulation pH between 5.5 and 7.0) was “well tolerated and safe”. For the same molecule, the “efficacy in seasonal non-severe cough” value ([5]; three mg delivered to the lung) was “efficacious”, the “time to cough suppression” value (cough [6]) was 10 to 15 min and the cough (cough [7]; 10 to 20 mg every 4-6 hours, albuterol pretreatment) was “abolished cough”. For the same molecule, the bronchoconstriction (cough [7]; 10 to 20 mg every 4-6 hours) was “not bronchoconstriction”, the bronchospasm on administration (cough [7]; in vivo) was “triggers bronchospasm” and the “patients with one or more respiratory AEs” value ([8]; 10 mg (16/55)) was 29%. For the same molecule, the “incidence of oropharyngeal numbing, noted at least once” value ([8]; 10 mg (22/55)) was 40%, the “patients with at least one adverse event” value ([8]; 10 mg twice daily, 12 weeks (39/55)) was 71% and the “incidence of oropharyngeal numbing, noted at least once” value ([8]; 40 mg (16/51)) was 31.45%. The “patients with one or more respiratory AEs” value ([8]; 40 mg (18/51)) was 35%, the “patients with at least one adverse event” value ([8]; 40 mg twice daily, 12 weeks (33/51)) was 65% and the “lung deposition of lidocaine” value ([8]; compared with previous delivery) was “increased two- to three-fold”. The “loss of gag reflex” value ([8]; human, in vivo) was “No loss of gag reflex”, the “reports of bronchospasm upon lidocaine delivery” value ([8]; human, in vivo) was “no reports of bronchospasm” and the “tracheal aspiration of food or liquid” value ([8]; human, in vivo) was “No case”.
